Measured values as given in ChEMBL document CHEMBL1201862, “PubChem BioAssay data set” (2004).
Values belong to the compound of their own block, whether it stands above or below them. Activity calls are given as the source filed them.

Experiments:
[1] = molecular target: Eukaryotic translation initiation factor 4E (Mus musculus, UniProt P63073); test: blockers of eIF4G binding by eIF4E – biochemical, TR-FRET, dose response (AID 855); format: functional;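 note: potency for disrupting eIF4E binding to eIF4GI seen as loss of FRET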
[2] = molecular target: T1, RNA-binding protein pos-1 (Caenorhabditis elegans, UniProt G5EF15); test: disruptors of C. elegans POS-1 RNA interaction – biochemical, fluorescence polarization, dose response (AID 1964);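 note: purified POS-1 fused to maltose binding protein made in E. coli; potency of compounds blocking POS-1 binding to fluorescent RNA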
T1 sequence (G5EF15 whole entry): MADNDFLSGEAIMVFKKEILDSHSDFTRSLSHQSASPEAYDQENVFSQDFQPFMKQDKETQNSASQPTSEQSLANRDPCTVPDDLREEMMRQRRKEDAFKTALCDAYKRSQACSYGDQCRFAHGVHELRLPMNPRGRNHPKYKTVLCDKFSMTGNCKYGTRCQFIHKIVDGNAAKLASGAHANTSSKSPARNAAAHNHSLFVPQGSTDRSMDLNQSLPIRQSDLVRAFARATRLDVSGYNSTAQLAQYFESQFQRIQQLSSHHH

[3] = molecular target: Induced myeloid leukemia cell differentiation protein Mcl-1 (Homo sapiens, UniProt Q07820); format: functional
SUMO-activating enzyme [4] = molecular target: T2, SUMO-activating enzyme (Homo sapiens, UniProt Q9UBT2); test: blockers of UBC9-mediated SUMO conjugation – biochemical, AlphaScreen, SUMOylation inhibitor project, confirmation (AID 2018); format: functional
SUMO-activating enzyme [5] = molecular target: T2, SUMO-activating enzyme; test: blockers of SAE1/SAE2–UBC9 SUMO transfer – biochemical, HTRF, uHTS, primary screen (AID 2006); format: protein-complex assay
[6] = molecular target: T3, Zinc finger protein mex-5 (Caenorhabditis elegans, UniProt Q9XUB2); test: potency of MEX-5 RNA-binding blockers – biochemical, C. elegans, fluorescence polarization, dose response (AID 1960)
T3 sequence (Q9XUB2 whole entry): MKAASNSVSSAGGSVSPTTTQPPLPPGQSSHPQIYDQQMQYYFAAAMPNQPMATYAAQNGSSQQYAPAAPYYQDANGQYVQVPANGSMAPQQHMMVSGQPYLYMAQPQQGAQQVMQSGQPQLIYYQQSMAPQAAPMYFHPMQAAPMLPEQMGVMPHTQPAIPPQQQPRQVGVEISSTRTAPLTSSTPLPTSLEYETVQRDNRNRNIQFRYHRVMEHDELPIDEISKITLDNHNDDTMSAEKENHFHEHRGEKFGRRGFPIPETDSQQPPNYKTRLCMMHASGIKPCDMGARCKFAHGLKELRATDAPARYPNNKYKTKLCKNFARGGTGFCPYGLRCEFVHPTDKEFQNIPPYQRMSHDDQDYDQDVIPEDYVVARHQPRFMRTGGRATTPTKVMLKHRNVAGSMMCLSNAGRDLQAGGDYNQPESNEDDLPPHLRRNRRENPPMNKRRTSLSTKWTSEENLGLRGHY

Genome polyprotein = Genome polyprotein (dengue virus type 2, UniProt P29990); test: flavivirus cap methylation enzyme inhibition – biochemical, confirmation dose response, primary screen (AID 588689); format: functional
[7] = HEK-293T cell viability reduction – luminescence, B-cell screen hits, cytotoxicity control for BCR NF-kB inhibitor project, dose response (AID 489021); format: functional, cell-based;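 note: HEK-293T cells carrying an NF-kB luciferase reporter; cells exposed to compound for about 14 hours before viability readout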
[8] = Luminescence Cell-Based Dose Retest to Confirm Inhibitors of Cancer Stem Cells. [Related pubchem assays (depositor defined):AID2717, AID2721]; format: functional; conditions: Homo sapiens
[9] = HEK-293T viability loss after treatment – luminescence, T-cell screen hits, cytotoxicity control for TCR NF-kB inhibitor project, dose response (AID 489026); format: functional, cell-based;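 note: cells exposed to compound about 14 hours before the viability readout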
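Throughout, for AC50: cells exposed to compound for roughly 70 hours or longer before luminescence read.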

Sequence of Eukaryotic translation initiation factor 4E (P63073 whole entry, the tested form may be a part): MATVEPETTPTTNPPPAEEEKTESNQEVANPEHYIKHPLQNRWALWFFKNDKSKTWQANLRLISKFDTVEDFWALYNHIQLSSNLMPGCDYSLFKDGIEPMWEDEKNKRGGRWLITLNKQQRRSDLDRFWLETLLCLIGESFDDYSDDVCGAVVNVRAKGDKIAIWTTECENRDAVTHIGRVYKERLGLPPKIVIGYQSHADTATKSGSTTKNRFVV
T2 sequence (Q9UBE0 whole entry): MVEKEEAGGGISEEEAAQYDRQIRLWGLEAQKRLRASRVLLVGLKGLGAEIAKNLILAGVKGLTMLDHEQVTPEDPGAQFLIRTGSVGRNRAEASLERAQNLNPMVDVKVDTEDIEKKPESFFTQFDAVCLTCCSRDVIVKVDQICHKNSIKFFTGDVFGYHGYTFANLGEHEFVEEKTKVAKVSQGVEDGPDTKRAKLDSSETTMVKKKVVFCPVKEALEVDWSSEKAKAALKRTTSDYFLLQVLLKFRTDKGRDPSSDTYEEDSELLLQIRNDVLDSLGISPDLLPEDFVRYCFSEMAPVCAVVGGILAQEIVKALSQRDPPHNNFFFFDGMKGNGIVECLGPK
T2 sequence (Q9UBT2 whole entry): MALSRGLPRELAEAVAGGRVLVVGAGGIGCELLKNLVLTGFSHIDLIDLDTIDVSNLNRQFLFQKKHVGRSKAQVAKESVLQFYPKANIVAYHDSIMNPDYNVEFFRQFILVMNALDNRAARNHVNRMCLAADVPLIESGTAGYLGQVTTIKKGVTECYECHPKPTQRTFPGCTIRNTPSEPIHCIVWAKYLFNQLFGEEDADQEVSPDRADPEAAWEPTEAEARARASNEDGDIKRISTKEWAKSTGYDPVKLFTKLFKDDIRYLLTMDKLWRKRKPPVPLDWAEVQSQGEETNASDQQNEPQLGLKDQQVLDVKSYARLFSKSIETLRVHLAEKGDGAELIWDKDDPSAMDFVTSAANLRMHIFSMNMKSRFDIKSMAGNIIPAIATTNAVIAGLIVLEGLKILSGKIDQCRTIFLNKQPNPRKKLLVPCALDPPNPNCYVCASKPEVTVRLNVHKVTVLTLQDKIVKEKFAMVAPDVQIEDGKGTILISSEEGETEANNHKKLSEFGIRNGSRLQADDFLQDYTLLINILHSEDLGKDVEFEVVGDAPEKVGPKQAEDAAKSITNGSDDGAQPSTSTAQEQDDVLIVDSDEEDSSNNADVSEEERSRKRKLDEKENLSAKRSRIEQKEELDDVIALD
Sequence of Induced myeloid leukemia cell differentiation protein Mcl-1 (Q07820 whole entry): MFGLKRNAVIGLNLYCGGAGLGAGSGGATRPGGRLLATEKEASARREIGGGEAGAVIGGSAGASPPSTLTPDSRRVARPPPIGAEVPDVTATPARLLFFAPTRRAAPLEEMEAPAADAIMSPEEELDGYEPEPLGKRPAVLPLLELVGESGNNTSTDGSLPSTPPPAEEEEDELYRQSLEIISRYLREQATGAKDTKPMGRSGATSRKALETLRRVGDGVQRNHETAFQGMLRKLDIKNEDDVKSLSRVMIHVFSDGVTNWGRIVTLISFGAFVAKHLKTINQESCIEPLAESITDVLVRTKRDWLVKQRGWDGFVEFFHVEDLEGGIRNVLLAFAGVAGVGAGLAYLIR
Sequence of Genome polyprotein (P29990 2492-3391 limits assumed): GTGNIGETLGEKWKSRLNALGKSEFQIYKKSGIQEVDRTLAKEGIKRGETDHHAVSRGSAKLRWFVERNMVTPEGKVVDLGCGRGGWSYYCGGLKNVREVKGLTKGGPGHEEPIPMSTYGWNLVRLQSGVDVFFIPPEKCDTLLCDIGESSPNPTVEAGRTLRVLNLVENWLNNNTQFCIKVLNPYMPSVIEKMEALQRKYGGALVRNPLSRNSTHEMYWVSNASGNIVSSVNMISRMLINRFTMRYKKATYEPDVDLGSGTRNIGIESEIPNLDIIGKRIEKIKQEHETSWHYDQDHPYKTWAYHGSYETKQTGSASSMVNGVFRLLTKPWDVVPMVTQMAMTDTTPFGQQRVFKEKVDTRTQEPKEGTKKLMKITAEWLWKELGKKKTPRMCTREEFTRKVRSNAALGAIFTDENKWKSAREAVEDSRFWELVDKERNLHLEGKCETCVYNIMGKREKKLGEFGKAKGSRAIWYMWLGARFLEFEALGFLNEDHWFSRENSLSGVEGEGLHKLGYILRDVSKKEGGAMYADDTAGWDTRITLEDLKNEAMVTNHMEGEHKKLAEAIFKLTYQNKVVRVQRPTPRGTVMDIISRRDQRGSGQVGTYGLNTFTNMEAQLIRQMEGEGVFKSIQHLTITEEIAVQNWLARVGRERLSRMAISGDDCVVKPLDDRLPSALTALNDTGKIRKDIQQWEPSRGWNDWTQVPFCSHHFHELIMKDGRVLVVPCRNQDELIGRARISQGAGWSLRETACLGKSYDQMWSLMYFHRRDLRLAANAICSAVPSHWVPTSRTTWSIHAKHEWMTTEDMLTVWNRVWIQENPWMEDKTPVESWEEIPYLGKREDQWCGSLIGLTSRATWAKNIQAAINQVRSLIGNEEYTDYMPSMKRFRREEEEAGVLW

- IC50 [1]: > 64 µM (inactive)
Structure (SMILES): Cc1ccc(CNC(=O)c2ccc(N3CCc4ccccc43)c([N+](=O)[O-])c2)cc1

Structure (SMILES): CC1=C(C#N)C(=O)NC(=O)/C1=C\c1ccc(-c2cc(C)c(C)cc2[N+](=O)[O-])o1
- IC50 [1]: 40.4 µM (inactive)
- EC50 [2]: > 300 µM (not active)
- IC50 [3]: 2.87 µM (active)
- IC50 (SUMO-activating enzyme [4]): 5.31 µM (active)
- IC50 (SUMO-activating enzyme [5]): 39.7 µM (active)
- EC50 [6]: > 300 µM (not active)
- IC50 (Genome polyprotein): 64.9 µM (active)

Structure (SMILES): COc1ccc(/C=C2\SC(=S)N(CCC(=O)Nc3ccc(O)cc3)C2=O)cc1
- IC50 [7]: > 80 µM (inactive)

Structure (SMILES): Cc1ccc(-c2nsc3c(N4CCC(C(N)=O)CC4)ncnc23)cc1
- IC50 [7]: > 80 µM (inactive)

- IC50 [1]: 32.7 µM (inactive)
- IC50 [3]: 1.53 µM (not active)
Structure (SMILES): O=C1OC(c2cccs2)=N/C1=C/c1ccc(-c2cccc(C(=O)O)c2)o1

Structure (SMILES): CCOC(=O)c1c(CSc2ccccc2)n(C)c2cc(Br)c(OCC(O)CNC(CO)(CO)CO)cc12 (stereo unspecified)
- IC50 (SUMO-activating enzyme [4]): 2.75 µM (active)
- IC50 (SUMO-activating enzyme [5]): 17.9 µM (active)
- AC50 [8]: 1.46 µM (active)

Structure (SMILES): CCc1ccc(/C=N/NC(=O)c2cc(-c3ccncc3)nc3ccccc23)s1
- IC50 [9]: > 80 µM (inactive)
